# Entries after “also recorded” stand apart in the source; their conditions may differ.
# Columns and labels:
# [1] = target: T1, vitamin D receptor (VDR) (Homo sapiens, UniProt P11473); experiment: Vitamin D-dependent transcriptional activation, growth hormone production in co-transfected COS-1 cells; format: cell-based
# T1 sequence (P11473 1-427): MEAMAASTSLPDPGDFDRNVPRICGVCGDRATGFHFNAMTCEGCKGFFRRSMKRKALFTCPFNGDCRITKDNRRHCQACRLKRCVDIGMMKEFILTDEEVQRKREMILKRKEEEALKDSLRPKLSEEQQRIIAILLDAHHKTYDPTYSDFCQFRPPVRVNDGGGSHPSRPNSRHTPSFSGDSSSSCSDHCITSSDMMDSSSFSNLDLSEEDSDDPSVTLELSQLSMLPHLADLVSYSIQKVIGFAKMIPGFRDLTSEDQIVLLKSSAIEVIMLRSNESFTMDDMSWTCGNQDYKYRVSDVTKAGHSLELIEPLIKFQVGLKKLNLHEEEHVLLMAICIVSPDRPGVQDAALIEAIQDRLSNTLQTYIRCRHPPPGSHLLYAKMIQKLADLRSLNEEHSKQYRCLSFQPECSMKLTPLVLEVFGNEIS
# Procedure: The biological activity in vitro of chemically synthesized 1α,24(S)-(OH)2 D2 and 1α,24(R)-(OH)2 D2 was measured using a vitamin D-dependent transcriptional activation model system in which a vitamin D receptor (VDR)-expressing plasmid pSG5-hVDR1/3and a plasmid p(CT4)^4 TKGH containing a Growth Hormone (GH)-gene, under the control of a vitamin D-responsive element (VDRE) were co-transfected into Green monkey kidney, COS-1 cells. DNA's for these two vectors were supplied by Dr. Mark Haussler, Department of Biochemistry, University of Arizona, Tucson, Ariz.
# Tranfected cells were incubated with vitamin D metabolites and growth hormone production was measured.
# [2] = target: T2, bovine thymus VDR (Bos taurus, UniProt Q28037); experiment: Radioreceptor assay with bovine thymus VDR (Incstar), displacement of 3H-1α,25-(OH)2 D3; format: binding
# T2 construct: commercially available kit of bovine thymus VDR; purchased Incstar (Stillwater, Minn.); host or cells: bovine thymus
# T2 sequence (Q28037 1-426): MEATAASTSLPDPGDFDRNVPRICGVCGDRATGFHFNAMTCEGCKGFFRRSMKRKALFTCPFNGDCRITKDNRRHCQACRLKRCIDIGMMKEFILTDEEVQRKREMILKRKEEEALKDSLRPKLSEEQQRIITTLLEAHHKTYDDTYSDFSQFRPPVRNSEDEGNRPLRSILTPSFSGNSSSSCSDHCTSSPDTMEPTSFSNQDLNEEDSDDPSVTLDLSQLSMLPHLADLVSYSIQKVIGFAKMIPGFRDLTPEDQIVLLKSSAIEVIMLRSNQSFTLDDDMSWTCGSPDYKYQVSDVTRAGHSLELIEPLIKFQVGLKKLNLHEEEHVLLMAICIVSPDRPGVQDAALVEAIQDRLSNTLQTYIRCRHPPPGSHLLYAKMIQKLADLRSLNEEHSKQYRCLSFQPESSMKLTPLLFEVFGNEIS
# Excerpt: Purified 1α,24(S)-(OH)2 D2 was quantitated by photodiode array spectrophotometry and assayed in the radioreceptor assay.
# The purified 1α,24(R)-(OH)2 D2 and 1α,24(S)-(OH)2 D2 epimers were quantitated by ultraviolet spectroscopy. The concentration of 1α,24(R)-(OH)2 D2 required to produce the same displacement of ^3 H-1α,25-(OH)2 D3 tracer from the receptor was 20 to 30 times that required for 1α,24(S)-(OH)2 D2, as shown in FIG. 4.
# [3] = Dose ranging study in postmenopausal osteoporotic women; format: in vivo, human; conditions: oral 0.5 to 8.0 μg/day, escalated weekly over five weeks
# Procedure: Twenty postmenopausal osteoporotic women are enrolled in an open label study.
# On admission to the study, all patients receive instruction on selecting a daily diet containing 400 to 600 mg of calcium. Compliance to this diet is verified at weekly intervals by 24-hour food records and by interviews with each patient.
# All patients complete a one-week baseline period, a five-week treatment period, and a one-week post-treatment observation period. During the treatment period, patients orally self-administer 1α,24(S)-dihydroxyvitamin D2 at an initial dose of 0.5 μg/day for the first week, and at successively higher doses of 1.0, 2.0, 4.0, and 8.0 μg/day in each of the following four weeks. All doses are administered before breakfast.
# Blood and urine chemistries are monitored on a weekly basis throughout the study. Key blood chemistries include fasting serum levels of-calcium, phosphorus, osteocalcin, creatinine, and blood urea nitrogen. Key urine chemistries include 24-hour excretion of calcium, phosphorus, and creatinine.
# [4] = Hypocalcemia and metabolic bone disease in chronic hemodialysis patients; format: in vivo, human; conditions: greater than 3.0 μg/day, twelve months
# Procedure: A twelve-month, double-blind, placebo-controlled clinical trial is conducted with thirty men and women with renal disease who are undergoing chronic hemodialysis. […] Efficacy is evaluated by pre- and post-treatment comparisons of the two patient groups with regard to (a) direct measurements of intestinal calcium absorption, (b) total body calcium retention, (c) radial and spinal bone mineral density, or (d) determinations of serum calcium. Safety is evaluated by regular monitoring of serum calcium.
# [5] = Dermatological testing, topical treatment of dermatitis; format: in vivo, human; conditions: ointment 10 μg per gram, twice daily, four to six weeks
# Procedure: Compositions containing 1α,24(S)-dihydroxy vitamin D2 are evaluated for therapeutic efficacy of the composition in the topical treatment of dermatitis (contact and ectopic). The composition evaluated is an ointment containing 10 μg of 1α,24-dihydroxy vitamin D2 per gram of ointment in a petrolatum-almond oil base. […] The patients are treated in an out-patient clinic. They are instructed to use the preparation two times a day.
# The ointment is as far as possible applied to a single lesion, or to an area of the disease. The ointment and its container are weighed before the treatment starts and returned with any unused contents for reweighing at the end of the treatment.
# The area of the lesion treated is estimated and recorded, and the lesion is photographed as required, together with suitable "control" lesions. The latter are preferably lesions of similar size and stage of development, either in the vicinity of the treated lesion or symmetrically contralateral. Relevant details of the photographic procedure are recorded so as to be reproduced when the lesions are next photographed (distance, aperture, angle, background, etc.). The ointment is applied twice daily and preferably left uncovered. The "control" lesions are left untreated, but if this is not possible, the treatment used on them is noted. […]
# [6] = system: BCA-1 or ZR-75-1 (breast) and COL-1 (colon); experiment: Antiproliferative activity in human cancer cell lines, thymidine incorporation; format: cell-based; conditions: dose-response studies
# Procedure: Dose-response studies are conducted with 1α,24(S)-(OH)2 D2 in a battery of human cancer cell lines. These cell lines include, but are not limited to, the following: BCA-1 or ZR-75-1 (breast) and COL-1 (colon), as described by Shieh, H. L. et al. Chem. Biol. Interact., vol. 81, pp. 35-55 (1982). In this study, appropriate solvents are used as negative controls.
structure (smiles),measurement,setting,value
"C=C1/C(=C\C=C2/CCC[C@]3(C)[C@@H]([C@H](C)/C=C/[C@@](C)(O)C(C)C)CC[C@@H]23)C[C@@H](O)C[C@@H]1O [1α,24(S)-(OH)2 D2, 1α,24(S)-dihydroxy Vitamin D2]","Activity in the transcriptional activation system compared with 1α,24(R)-(OH)2 D2",[1],significantly more activity
same,"Affinity for VDR relative to 1α,25-(OH)2 D3",[2],two-fold less competitive; also recorded: two-fold lower affinity
same,24-hour urinary calcium levels,[3],modest increases
same,Routinely monitored serum parameters,[3],no effect on any routinely monitored serum parameters
same,Serum osteocalcin levels,[3],increases in serum osteocalcin levels
same,Urinary excretion of hydroxyproline,[3],nor does it increase urinary excretion of hydroxyproline
same,Incidence of hypercalcemia,[4],insignificant incidence of hypercalcemia
same,Radial and spinal bone densities,[4],stable radial and spinal bone densities relative to baseline values
same,Serum calcium levels,[4],normalized serum calcium levels
same,Total body calcium,[4],stable values for total body calcium
same,Incidence of hypercalcemia,[5],insignificant incidence of hypercalcemia
same,"Lesion severity scores (erythema, scaling, thickness, rated 0 to 3)",[5],lower scores than the control lesions
same,"Antiproliferative activity, inhibition of thymidine incorporation",[6],potent (and reversible) antiproliferative activity

# From patent publication US6143910A, “Methods for preparation and use of 1α, 24(S) -dihydroxy vitamin D2” (priority 1998, dated 2000)
